{"source": "paper PMC11274521", "about": "(Cells, 2024)", "molecules": {"B1": {"name": "Biotin-PA-scramble (peptide)", "peptide": "EYEKEYETKLREIFVNLRTNSEN", "modifications": "biotin-ahx at the N-terminus; palmitic acid on the Lys side chain of EYEKEYE; ahx (6-aminohexanoic acid) between EYEKEYE and the peptide", "notes": "peptide tag that carries palmitic acid on its Lys; also called biotin–PA–scrambled peptide; PA-coupled scramble peptide; source: synthetic peptide (Fmoc chemistry); not shown: biotin, N-terminal, kept"}}, "key": {"albumin (HSA, BSA, FBS)": {"tested_on": "albumin (HSA, BSA, FBS)", "assay": "Biotin pulldown of albumin", "format": "binding, human, bovine", "conditions": "1 mM biotinylated peptide, 0.03 mM HSA, BSA or FBS, 2 h 4 °C, streptavidin resin", "procedure": "For immunoprecipitation (IP), 300 µg of lysate was mixed with 5 µg of human anti-PD-1 (#AF1086, R&D) or mouse anti-PD-L1 (#PA5-20343, Invitrogen-Thermo Fisher Scientific) at 4 °C for 2 h followed by 30 min incubation with 20 µL of Pierce™ Protein A/G Magnetic Beads (ThermoFisher Scientific; catalog #88802) at room temperature followed by Western blot to detect the interacted proteins. In the biotin pulldown procedure, 1 mM biotinylated peptides were incubated with 0.03 mM of albumin (BSA, HSA, the equivalent amount FBS) for 2 h at 4 °C followed by incubating with 50 µL Streptavidin resin (Genescript, Piscataway, NJ, USA) for 1 hr at room temperature, followed by SDS-PAGE to detect the bound albumin."}, "physchem": {"assay": "physchem", "conditions": "aqueous buffer"}, "[1]": {"conditions": "mouse, in vivo"}, "bovine serum albumin": {"biological_target": "T1, bovine serum albumin (bovine, UniProt P02769 25-607)", "T1 construct": "bovine serum albumin, used as BSA and as the albumin in an equivalent amount of FBS; also called BSA; albumin of fetal bovine serum (FBS); source: also as the albumin in fetal bovine serum (FBS)", "T1 sequence (P02769 25-607)": "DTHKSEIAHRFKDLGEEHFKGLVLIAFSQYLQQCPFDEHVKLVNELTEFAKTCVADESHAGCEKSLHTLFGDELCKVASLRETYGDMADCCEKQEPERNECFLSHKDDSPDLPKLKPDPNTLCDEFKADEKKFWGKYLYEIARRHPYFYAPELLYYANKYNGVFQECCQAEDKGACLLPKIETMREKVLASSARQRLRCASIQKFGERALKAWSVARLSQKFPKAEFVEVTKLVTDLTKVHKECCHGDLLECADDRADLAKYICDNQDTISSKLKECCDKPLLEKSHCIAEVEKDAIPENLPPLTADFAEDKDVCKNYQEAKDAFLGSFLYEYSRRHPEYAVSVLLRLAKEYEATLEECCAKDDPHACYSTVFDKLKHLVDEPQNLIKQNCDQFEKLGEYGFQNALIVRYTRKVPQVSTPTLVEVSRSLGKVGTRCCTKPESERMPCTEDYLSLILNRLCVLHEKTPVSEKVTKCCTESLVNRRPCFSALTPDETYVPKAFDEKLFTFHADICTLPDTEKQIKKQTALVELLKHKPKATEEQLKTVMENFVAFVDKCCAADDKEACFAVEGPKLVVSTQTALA", "assay": "pull-down; 1 mM biotinylated peptide with 0.03 mM albumin (HSA or BSA) for 2 h at 4 °C, then Streptavidin resin for 1 h at room temperature; bound albumin detected by SDS-PAGE", "conditions": "both partners purified"}, "human serum albumin": {"biological_target": "T2, human serum albumin (human, UniProt P02768 25-609)", "T2 construct": "human serum albumin (HSA); also called HSA", "assay": "pull-down; 1 mM biotinylated peptide with 0.03 mM albumin (HSA or BSA) for 2 h at 4 °C, then Streptavidin resin for 1 h at room temperature; bound albumin detected by SDS-PAGE", "conditions": "both partners purified"}}, "note": "Ends that are not written are not given here. Peptide text beside a SMILES is read from it. * marks the point of attachment. Biotin = O=C1N[C@H]2[C@H](CS[C@H]2CCCCC(=O)*)N1; Ahx = NCCCCCC(=O)O"}
{"molecule": "CC[C@H](C)[C@H](NC(=O)[C@H](CCCNC(=N)N)NC(=O)[C@H](CC(C)C)NC(=O)[C@H](CC(N)=O)NC(=O)[C@H](CO)NC(=O)[C@@H](NC(=O)[C@@H](NC(=O)[C@H](CC(N)=O)NC(=O)[C@H](Cc1ccccc1)NC(=O)[C@H](CC(C)C)NC(=O)[C@H](CCCCN)NC(=O)[C@H](CCC(=O)O)NC(=O)[C@H](CCC(=O)O)NC(=O)[C@H](CCCNC(=N)N)NC(=O)CCCCCNC(=O)CCCC[C@@H]1SC[C@@H]2NC(=O)N[C@@H]21)C(C)C)[C@@H](C)O)C(=O)N[C@@H](CC(N)=O)C(=O)N[C@H](C(N)=O)[C@@H](C)O", "note": "[Biotin-L7N] ({Biotin-Ahx}-REEKLFNVTSNLRINT-NH2)", "values": [{"measurement": "Binding to albumin (pulldown, SDS-PAGE)", "setting": "albumin (HSA, BSA, FBS)", "value": "no binding"}]}
{"molecule": "CC[C@H](C)[C@H](NC(=O)[C@H](CCCNC(=N)N)NC(=O)[C@H](CC(C)C)NC(=O)[C@H](CC(N)=O)NC(=O)[C@H](CO)NC(=O)[C@@H](NC(=O)[C@@H](NC(=O)[C@H](CC(N)=O)NC(=O)[C@H](Cc1ccccc1)NC(=O)[C@H](CC(C)C)NC(=O)[C@H](CCCCN)NC(=O)[C@H](CCC(=O)O)NC(=O)[C@H](CCC(=O)O)NC(=O)[C@H](CCCNC(=N)N)NC(=O)CCCCCNC(=O)[C@H](CCC(=O)O)NC(=O)[C@H](Cc1ccc(O)cc1)NC(=O)[C@H](CCC(=O)O)NC(=O)[C@H](CCCCN)NC(=O)[C@H](CCC(=O)O)NC(=O)[C@H](Cc1ccc(O)cc1)NC(=O)[C@H](CCC(=O)O)NC(=O)CCCCCNC(=O)CCCC[C@@H]1SC[C@@H]2NC(=O)N[C@@H]21)C(C)C)[C@@H](C)O)C(=O)N[C@@H](CC(N)=O)C(=O)N[C@H](C(N)=O)[C@@H](C)O", "note": "[Biotin-EYEKEYE-L7N]", "values": [{"measurement": "Binding to albumin (pulldown, SDS-PAGE)", "setting": "albumin (HSA, BSA, FBS)", "value": "no binding"}]}
{"molecule": "REEKLFNVTSTLRINT-NH2 [L7]", "values": [{"measurement": "solubility", "setting": "physchem", "value": "< 10000", "unit": "µg/mL"}]}
{"molecule": "REEKLFNVTSNLRINT-NH2 [L7N]", "values": [{"measurement": "Immune reactions of mice", "setting": "[1]", "value": "adverse immune reactions"}, {"measurement": "Toxicity to cells", "setting": "cells", "value": "no significant toxicity"}]}
{"molecule": "B1", "values": [{"measurement": "binding result", "setting": "bovine serum albumin", "value": "binds"}, {"measurement": "binding result", "setting": "human serum albumin", "value": "binds"}]}
